Laboratory results reported in patent US20220265775A1, “COMPOSITIONS AND METHODS FOR TREATING PULMONARY EDEMA OR LUNG INFLAMMATION” (priority 2019, published 2022).

How the values were obtained:
HO-1 = assay: Western blot of total cellular HO-1 protein in RLE-6TN cells under hyperoxia; type: cell-based, rat; conditions: T3 10^−6 M
Experimental: FIG. 10. HO-1 upregulation is required for T3-increased RLE-6TN cell survival in hyperoxia. […] The cells were then collected for Western Blot analysis. (B) The cells were incubated in 21% O2 and 5% CO2 for 72 hours in the present of HO-1 inhibitor Tin Protoporphyrin IX (10^−6M). […] Cell viability is assessed with trypan blue. The number of viable cells under specific conditions is presented as a percentage of the cell number related to hyperoxia alone. Data are mean±s.d. of three independent experiments with *=P<0.05; **=P<0.01.
The cells were lysed in lysis buffer containing 20 mM Tris HCl (pH 7.5), 150 mM NaCl, 1 mM EDTA, 1 mM EGTA, 1% (vol/vol) Triton X-100 with protease inhibitors (1 mM PMSF, 2 μg/ml pepstatin, and 10 μg/ml each of aprotinin and leupeptin), and phosphatase inhibitors (2.5 mM sodium pyrophosphate, 1 mM β-glycerophosphate, and 1 mM Na3VO4). The lysate was drawn 10 times through a 25-gauge needle on ice for further lysis and then was centrifuged at 13,000 rpm for 15 minutes at 4° C. The supernatant was collected, and the protein concentrations were determined by use of the BCA protein assay kit (Sigma-Aldrich, St. Louis, Mo.). Immediately after this step, equal amounts of protein were subjected to Western blotting analysis.

[1] = test system: hyperoxia-induced lung injury; assay: Wet-dry lung weight ratio in hyperoxia-exposed rats; type: in vivo, Sprague Dawley rats; conditions: 60 hours of hyperoxia (O2 with T3), intraperitoneal T3 12.5 μg/kg body weight each 12 hours, O2 alone 6.61±0.604, p=0.0495
Description: (§1) All experimental protocols for animal treatments were approved by the University of Minnesota Institutional Animal Care and Use Committee. […] The room-air control rats were kept in the University animal housing facility. At the end of hyperoxic exposure, rats were sacrificed by intraperitoneal pentobarbital injection, and the lungs were harvested; the right lobes were allocated for histopathology, measurement of lung tissue myeloperoxidase (MPO) activity and wet-to-dry weight ratio. The left lobes underwent bronchoalveolar lavage (BAL) to determine BAL protein concentrations and differential cell counts.
A portion of the right lung was rinsed briefly in PBS, blotted, and then weighed to obtain the “wet” weight. Lungs then were dried in an oven at 80° C. for seven days to obtain the “dry” weight.

[2] = test system: hyperoxia-induced lung injury; assay: Lung lavage (BAL) analyses in hyperoxia-exposed rats: protein concentration and cell counts; type: in vivo, Sprague Dawley rats
Description: as §1
Bronchoalveolar lavage (BAL) of the left lung was performed using a modification of a method previously described (Pace et al., Exp Lung Res 35:380-398, 2009). Briefly, 4 mls of ice-chilled 1×PBS (pH 7.4) were instilled into the left lung, withdrawn, and re-instilled two subsequent times prior to analysis of the lavage fluid. The retrieved BAL fluid was centrifuged at 1500 rpm for 10 minutes to remove cells and debris. The cell pellet was resuspended in 1 ml of 1×PBS (pH 7.4) and total cell number was counted using a hemocytometer. BAL cytospin preparations were stained using the Hema3 stain kit (Thermo Fisher Scientific, Inc., Waltham, Mass.) to identify the nucleated cells. The protein concentration was determined on the supernatants of BAL fluid using a standard BCA assay (Sigma-Aldrich, St. Louis, Mo.).

[3] = test system: myeloperoxidase (MPO) activity in lung tissue; assay: Myeloperoxidase (MPO) activity assay and MPO immunostaining of lung tissue of hyperoxia-exposed rats; type: in vivo, Sprague Dawley rats
Description: as §1
To quantify the neutrophil activity in the lung, MPO activity was assayed as previously described (Abraham et al., J Immunol 165:2950-2954, 2000). Lung tissues without prior lavage were frozen in liquid nitrogen, weighed, and stored at −86° C. The lungs were homogenized for 30 seconds in 1.5 ml 20 mM potassium phosphate, pH 7.4, and centrifuged at 4° C. for 30 minutes at 40,000×g. The pellet was resuspended in 1.5 ml 50 mM potassium phosphate, pH 6.0, containing 0.5% hexadecyltrimethylammonium bromide, sonicated for 90 seconds, incubated at 60° C. for two hours, and centrifuged at 14,000 rpm for 30 minutes at 4° C. The supernatant was assayed for peroxidase activity corrected to lung weight. MPO was expressed as activity per gram of lung tissue. […]

[4] = test system: hyperoxia-induced lung injury; assay: Histopathological evaluation of lung sections of hyperoxia-exposed rats; type: in vivo, Sprague Dawley rats; conditions: 60 hours of hyperoxia, systemic T3 supplementation
Description: FIG. 18. […] (A) Control: room air; (B) Hyperoxia; (C) Hyperoxia+T3.
as §1
Lung tissue was removed and inflation fixed at 20 cm water pressure in 4% paraformaldehyde, paraffin embedded, cut as 5 micron sections and mounted onto poly-L-lysine slides. Sections were deparaffinized in xylene, rehydrated through a graded alcohol series in methanol, and placed in a 98° C. water bath for 30 minutes in citrate buffer (pH 6.0) for antigen retrieval. After quenching with 0.3% hydrogen peroxide in PBS, sections were incubated in normal serum for 30 minutes and for 15 minutes each with Avidin/Biotin Blocking Kit (Vector Laboratories, Inc., Burlingame, Calif.). […]

With N[C@@H](Cc1cc(I)c(Oc2ccc(O)c(I)c2)c(I)c1)C(=O)O [T3, triiodothyronine] the “total cellular protein of HO-1” value (HO-1) was “significantly enhanced total cellular protein of HO-1”, the “wet-to-dry lung weight ratio” value [1] was 5.82±0.197 and the “neutrophils among BALF cells” value ([2]; rats after hyperoxia with T3 treatment (data not shown)) was “relatively few of the BALF cells after hyperoxia were neutrophils”. The BALF cell numbers ([2]; rats, 95% oxygen, 48 hours and 60 hours, T3 administration vs hyperoxia alone) was “significantly reduced the BALF cell numbers”, the BALF protein concentration ([2]; rats, hyperoxia, 48 hour and 60 hour time points, T3 administration vs hyperoxia alone) was “attenuated significantly the hyperoxic increases” and the “MPO-positive cells in the lungs (immunostaining)” value ([3]; T3-injected rats exposed to 95% oxygen for 60 hours vs hyperoxic lungs without T3) was “fewer MPO-positive cells”. For the same compound, the “lung MPO activity” value ([3]; rats, 60 hours of hyperoxia, T3 supplementation vs hyperoxia alone) was “significantly reduced the hyperoxia-induced MPO activity” and the “lung morphology (histopathology)” value [4] was “persistence of virtually normal lung morphology”.
